IC50 data for two compounds are collected here from patent US9073880B2, “2-(2-phenylethenyl) 1,3-benzodiazepine derivatives useful for the treatment of cancer” (Yissum Research Development Company of the Hebrew …, priority 2010, dated 2015).

Structures are written as SMILES.

As a reminder, the IC50 is the concentration at which inhibition is half-maximal.

For test [1], the system named is human colon carcinoma HCT15 cells. Put plainly: Cell proliferation, HCT15 (Example 4). The format is cell-based. The settings on record: HCT-15, HCT15, colon cancer, compound in 2-hydroxypropyl-β-cyclodextrin. The procedure:
(§1) Human ovary cancer A2780 cells lines were seeded at a density of 5000 cells/well, human melanoma A375 cells were plated at a density of 2,500 cells/well, human colon carcinoma HCT15 cells were plated at a density of 3,000 cells/well, human prostate carcinoma PC3 cells were plated at a density of 1,500 cells/well, human breast carcinoma MCF7 cells were plated at a density of 5,000 cells/well, human breast carcinoma MDA MB 468 cells were plated at a density of 6,000 cells/well, human myeloma U266, RPMI8226 and CAG cells were plated at a density of 10,000 cells/well. All cells were plated in 96-well plates in 90 μl growth medium containing 10% FCS, 100 units/ml penicillin and 100 μg/ml streptomycin. Compound 3 was added a day later in […] of 1% DMSO in DDW to obtain final concentrations of 0, 0.1, 0.3, 1, 3, and 10 μM. The final concentration of DMSO (0.1% DMSO) was kept constant in all samples. […] The optical density values were read at 630 nm in ELISA plate reader. Non-adhered cells were exposed to WST-1 reagent for 5 hours following 72 hours treatment with the inhibitors, and optical density values were read at 630 nm in ELISA plate reader. The data was analyzed in Microsoft Excel, using the vehicle control as 100% proliferation. […]

Test [2] relates to human melanoma A375 cells. Briefly: Cell proliferation, A375 (Example 4). The format is cell-based. Conditions: A-375, compound in 2-hydroxypropyl-β-cyclodextrin. The procedure: as §1

As to `O=c1c(O)cc2cnc(/C=C/c3cc(O)c(O)c(Br)c3)sc-2c1O` [Compound 3], the half-maximal inhibitory concentration (IC50) in test [1] is 700 nM; in test [2] it was 500 nM.

For the compound `O=c1c(O)cc2cnc(/C=C/c3ccc(O)c(O)c3Br)sc-2c1O` [Compound 5], the IC50 was 900 nM in test [1] and 400 nM in test [2].
